The nature of assay [1]: Effect on PI3K/AKT/mTOR pathway in PTEN deficient human MDA468 cells assessed as increase in p27Kip1 level at 0.01 to 0.1 ug/mL after 16 hrs by Western blot. The conditions noted are these: MDA-MB-468. The format is cell-based. A general note: A western blot detects proteins with antibodies after separation by electrophoresis.
Assay [2] is described as follows: Effect on PI3K/AKT/mTOR pathway in PTEN deficient human MDA468 cells assessed as inhibition of S6 phosphorylation after 16 hrs by Western blot. The format is cell-based. The conditions noted are these: MDA-MB-468.
The test system of a further assay is MDA-MB-435. Briefly: Growth inhibition of human MDA435 overexpressing PTEN after 3 days by MTS assay. The settings on record: MDA-MB-435, 72 h. The assay is classed as functional. On the technique in general: Tetrazolium assays rely on reduction of a dye to a coloured formazan, in cell work by metabolically active cells.
A short description of assay [3]: Effect on PI3K/AKT/mTOR pathway in PTEN deficient human MDA468 cells assessed as inhibition of S6K phosphorylation after 16 hrs by Western blot. The format is cell-based. The conditions noted are these: MDA-MB-468.
Assay [4] in a line: Effect on PI3K/AKT/mTOR pathway in PTEN deficient human MDA468 cells assessed as inhibition of cyclin D3 level at 0.01 to 0.1 ug/mL after 16 hrs by Western blot. The assay is classed as cell-based. The conditions noted are these: MDA-MB-468.
Assay [5] can be described thus: Growth inhibition of PTEN deficient human MDA468 cells after 3 days by MTS assay. The assay is classed as functional, cell-based. The settings on record: MDA-MB-468, 72 h.
Assay [6] can be described thus: Effect on PI3K/AKT/mTOR pathway in PTEN deficient human MDA468 cells assessed as phosphorylated AKT level at 0.01 to 0.1 ug/mL after 16 hrs by Western blot. The format is cell-based. The conditions noted are these: MDA-MB-468.
Assay [7] in a line: Effect on PI3K/AKT/mTOR pathway in PTEN deficient human MDA468 cells assessed as inhibition of 4EBP1 phosphorylation after 16 hrs by Western blot. The assay is classed as cell-based. The settings on record: MDA-MB-468.

In ChEMBL document CHEMBL1157940, “Culicinin D, an antitumor peptaibol produced by the fungus Culicinomyces clavisporus, strain LL-12I252” (J Nat Prod, 2006) one finds Activity and IC50 data, which are given here for one molecule.

The structures appear in SMILES notation. ≈ marks a conversion by molar mass, not a printed value. Calls of active or inactive are those of the source. No cut-off for these calls is given here. Numbered stars: 1 amine (or outer) side, 2 acyl side, 3 side chain; on linkers, the order of the positions; unused ones are H or OH. Square brackets hold non-standard residues; d marks the D form. Peptide text beside a SMILES is read from it. * marks the point of attachment. X1 = CCC(=O)CC(O)CC(C)C[C@H](N[*:1])C(=O)[*:2]; X2 = CCCCCCC(C)C[C@@H](N[*:1])C(=O)[*:2]; Aib = CC(C)(N)C(=O)O; Butyryl = CCCC(=O)*; X3 = CC(CNCCO)N*; βAla = NCCC(=O)O Bounds are passed on as bounds.

As for `CCCCCCC(C)C[C@@H](NC(=O)C(C)(C)NC(=O)C(C)(C)NC(=O)[C@H](CC(C)CC(O)CC(=O)CC)NC(=O)[C@@H]1CCCN1C(=O)CCC)C(=O)N[C@@H](CC(C)C)C(=O)NC(C)(C)C(=O)N[C@@H](CC(C)C)C(=O)NCCC(=O)NC(C)CNCCO` (stereo partly drawn) [CULICININ D] (Butyryl-P[X1][Aib][Aib][X2]L[Aib]L[βAla]-X3), the outcome in assay [1] and in assay [4] was Active. In addition, the Activity result in assay [2], in assay [3] and in assay [7] was “Dose-dependent effect” throughout. The IC50 (as a rule, the concentration needed to halve the response being measured) in the assay with MDA-MB-435 is 1.6 µg/mL (≈ 1.3 µM); in assay [5], < 0.007 µg/mL. Besides, in assay [6], the result was inactive.
